Activity calls are given as the source filed them.
Legend:
[1] = human group III sPLA2 inhibitors, dose response, biochemical, QFRET, IC50 (AID 743457);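 also: green fluorescence rise as the enzyme cleaves BODIPY PC-A2 in liposomes; potency for inhibition of the enzyme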
Major prion protein = Major prion protein (Homo sapiens, UniProt P04156); format: functional, cell-based
[2] = inhibitors of clade B AD8 Env fusion, dose response, cell-based, cherry-pick (AID 652062); format: functional;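 also: luciferase signal from cell-cell fusion driven by HIV-1 clade B AD8 Env; potency is for inhibitors of fusion seen as a drop in luminescence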
CHO-K1 = experiment: (§1) Counterscreen for antagonists of the orexin 1 receptor (OX1R; HCRTR1): Homogeneous time resolved fluorescence (HTRF)-based cell-based dose response assay to identify antagonists of the parental CHO-K1 cell line. [Related pubchem assays (depositor defined):AID434989, AID435008, AID463079, AID485270, AID492963, AID492964, AID492965, AID493232, AID504699, AID504701]; format: functional; details: Cricetulus griseus
X-box-binding protein 1 = molecular target: T1, X-box-binding protein 1 (Homo sapiens, UniProt P17861); format: functional, Cricetulus griseus;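 also: confirmatory dose-response counter-screen serving a CHOP assay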
T1 sequence (P17861 whole entry): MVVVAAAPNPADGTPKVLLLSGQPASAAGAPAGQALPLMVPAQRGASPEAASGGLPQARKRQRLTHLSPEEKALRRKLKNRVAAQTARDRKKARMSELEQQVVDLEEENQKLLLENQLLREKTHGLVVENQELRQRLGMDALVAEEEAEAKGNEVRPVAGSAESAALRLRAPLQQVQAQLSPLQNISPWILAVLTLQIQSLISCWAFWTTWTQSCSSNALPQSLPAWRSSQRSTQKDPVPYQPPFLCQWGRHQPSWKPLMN

[3] = molecular target: T2, Orexin/Hypocretin receptor type 1 (Homo sapiens, UniProt O43613); experiment: (§2) Fluorescence-based cell-based high throughput dose response assay for antagonists of the orexin 1 receptor (OX1R; HCRTR1). [Related pubchem assays (depositor defined):AID434989, AID435008, AID463079, AID485270, AID492963, AID492964, AID492965, AID493232, AID504717, AID504718]; format: functional
T2 sequence (O43613 whole entry): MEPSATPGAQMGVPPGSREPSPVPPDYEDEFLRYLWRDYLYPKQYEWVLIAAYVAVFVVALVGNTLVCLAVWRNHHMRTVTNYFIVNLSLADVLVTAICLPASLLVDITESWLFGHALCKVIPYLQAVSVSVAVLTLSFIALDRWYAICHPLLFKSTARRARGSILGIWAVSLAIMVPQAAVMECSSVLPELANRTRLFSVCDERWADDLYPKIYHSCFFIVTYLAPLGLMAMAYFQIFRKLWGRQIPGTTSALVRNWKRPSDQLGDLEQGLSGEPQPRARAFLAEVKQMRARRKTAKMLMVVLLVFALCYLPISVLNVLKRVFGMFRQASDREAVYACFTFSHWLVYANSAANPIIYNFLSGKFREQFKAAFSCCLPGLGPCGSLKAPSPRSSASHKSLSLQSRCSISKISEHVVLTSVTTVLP

[4] = ZM109 Env clade C HIV-1 fusion inhibitors, dose response, HeLa effector, CEM target cells, luciferase, cherry-pick (AID 652058); format: functional, cell-based
INS1 = experiment: beta cell apoptosis inhibitors, cytokine rescue, dose response, luminescence, retest (AID 449756); format: functional, cell-based; details: Rattus norvegicus;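 also: cell death triggered by IL-1 beta plus TNF-alpha plus IFN-gamma mixture; protective hits raise ATP signal compared with cytokine alone wells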
Insulin-degrading enzyme [5] = molecular target: T3, Insulin-degrading enzyme (Homo sapiens, UniProt P14735); experiment: activators of recombinant IDE enzyme, dose response, counter-screen for IDE activator project, biochemical, fluorescence polarization (AID 588681)
T3 sequence (P14735 whole entry): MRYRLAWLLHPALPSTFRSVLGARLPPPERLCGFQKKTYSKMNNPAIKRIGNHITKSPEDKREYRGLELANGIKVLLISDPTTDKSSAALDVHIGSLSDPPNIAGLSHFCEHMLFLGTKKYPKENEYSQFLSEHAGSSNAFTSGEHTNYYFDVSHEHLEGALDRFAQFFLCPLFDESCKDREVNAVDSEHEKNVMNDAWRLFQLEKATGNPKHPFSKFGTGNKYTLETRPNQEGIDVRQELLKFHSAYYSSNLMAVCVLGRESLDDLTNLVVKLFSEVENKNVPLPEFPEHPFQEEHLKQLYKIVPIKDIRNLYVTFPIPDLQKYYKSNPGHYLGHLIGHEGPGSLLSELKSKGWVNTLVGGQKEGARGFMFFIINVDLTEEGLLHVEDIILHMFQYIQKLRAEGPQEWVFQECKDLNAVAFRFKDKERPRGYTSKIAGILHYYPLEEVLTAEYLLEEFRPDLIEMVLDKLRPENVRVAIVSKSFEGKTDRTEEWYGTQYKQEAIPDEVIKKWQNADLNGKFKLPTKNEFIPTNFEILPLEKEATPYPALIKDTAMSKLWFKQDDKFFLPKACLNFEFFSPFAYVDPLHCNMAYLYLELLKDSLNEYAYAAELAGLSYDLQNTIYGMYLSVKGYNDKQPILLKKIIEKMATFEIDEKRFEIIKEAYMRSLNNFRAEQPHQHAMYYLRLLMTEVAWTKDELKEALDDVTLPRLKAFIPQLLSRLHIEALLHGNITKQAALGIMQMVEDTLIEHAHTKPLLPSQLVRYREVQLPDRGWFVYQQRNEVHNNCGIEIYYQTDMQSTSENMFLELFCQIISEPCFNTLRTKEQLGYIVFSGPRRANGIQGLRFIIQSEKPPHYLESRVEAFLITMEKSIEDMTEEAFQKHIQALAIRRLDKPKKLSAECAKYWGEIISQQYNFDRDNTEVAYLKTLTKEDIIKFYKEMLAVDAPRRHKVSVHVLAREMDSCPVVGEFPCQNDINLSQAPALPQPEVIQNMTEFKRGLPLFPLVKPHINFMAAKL

[6] = off-target signal loss in HeLa-CEM21 co-culture – HeLa F-luc CTL cells, cherry-picked, counter-screen for HIV-1 Env fusion inhibitor project, dose response (AID 652040); format: functional, cell-based;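 also: potency for signal decrease marking cytotoxic or nonspecific inhibition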
[7] = inhibitors of HIV Env-driven cell fusion, dose response, cherry-pick (AID 652057); format: functional, cell-based
Orexin receptor type 2 [8] = molecular target: T4, Orexin receptor type 2 (Homo sapiens, UniProt O43614); experiment: Counterscreen assay for antagonists of the orexin 1 receptor (OX1R; HCRTR1): Homogeneous Time Resolved Fluorescence (HTRF)-based cell-based dose response assay for antagonists of the orexin 2 receptor (OX2R; HCRTR2), run by assay provider.; format: functional
T4 sequence (O43614 whole entry): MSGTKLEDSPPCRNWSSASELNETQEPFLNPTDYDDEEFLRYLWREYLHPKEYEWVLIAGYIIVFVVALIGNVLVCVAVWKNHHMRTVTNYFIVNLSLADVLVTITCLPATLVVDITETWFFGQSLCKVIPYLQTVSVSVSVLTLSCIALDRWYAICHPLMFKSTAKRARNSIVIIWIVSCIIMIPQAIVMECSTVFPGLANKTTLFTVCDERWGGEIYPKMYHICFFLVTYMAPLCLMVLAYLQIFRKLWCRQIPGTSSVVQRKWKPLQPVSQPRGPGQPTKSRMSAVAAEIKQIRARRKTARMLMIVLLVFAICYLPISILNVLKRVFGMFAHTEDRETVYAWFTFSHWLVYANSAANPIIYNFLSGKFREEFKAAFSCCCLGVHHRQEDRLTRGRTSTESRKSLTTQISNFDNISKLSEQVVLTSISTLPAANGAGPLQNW

[9] = CEM21 lymphoblast cell cytotoxicity, dose response, cytotoxicity control for viral fusion inhibitor project, CellTiter-Glo luminescence, cherry-picked (AID 652042); format: functional, cell-based;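 also: potency for signal decrease meaning cytotoxicity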
HEK293 [10] = experiment: HEK cell cytotoxicity by LDH release, dose response, cytotoxicity control for IDE activator project, fluorescence, HEK cells (AID 588440); format: functional, cell-based; details: Homo sapiens;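 also: cytotoxicity by LDH release measuring loss of membrane integrity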
Orexin receptor type 2 [11] = molecular target: T4, Orexin receptor type 2; experiment: Counterscreen assay for antagonists of the orexin 1 receptor (OX1R; HCRTR1): Fluorescence-based cell-based dose response assay for antagonists of the orexin 2 receptor (OX2R; HCRTR2), run by assay provider.; format: functional
[12] = molecular target: T2, Orexin/Hypocretin receptor type 1; experiment: as §2, with “Homogeneous Time Resolved Fluorescence (HTRF)-based” for “Fluorescence-based”; format: functional
HEK293 [13] = experiment: optical interference in Abeta FP readout, dose response, artefact control for IDE activator project, biochemical, fluorescence polarization (AID 588442); format: functional, cell-based; details: Homo sapiens
Insulin-degrading enzyme [14] = molecular target: T3, Insulin-degrading enzyme; experiment: activators of endogenous IDE in HEK cells, dose response, cell-based, fluorescence polarization (AID 588439); format: functional
[15] = as §1, with “Fluorescence-based” for “Homogeneous time resolved fluorescence (HTRF)-based”, “cell-based high throughput” for “cell-based”, “CHO” for “CHO-K1”; format: functional

CCCCC(=O)Nc1ccc(C(=O)NNC(=S)NC(=O)c2cccs2)cc1
IC50 [1]: 63.5 µM (inactive)

COc1ccccc1Cn1c(=S)[nH]c2ccccc2c1=O
IC50 (cells): > 138 µM (inactive)
IC50 (Major prion protein): 3.49 µM (active)

CCN(CC)c1ccc(-c2nnc(S)n2-c2ccccc2)cc1
IC50 [1]: > 122 µM (inactive)

COc1ccc(OCc2n(CC(=O)OC3CC(C)CCC3C(C)C)c3ccccc3[n+]2C)cc1.[Cl-] (stereo unspecified)
AC50 [2]: 11 µM (active)
IC50 (CHO-K1): > 66.2 µM (inactive)
Absolute IC50 (XBP1) (X-box-binding protein 1): 10 µM
IC50 [3]: 8.69 µM (active)
AC50 [4]: 16.4 µM (active)
AC50 (INS1): 3.9 µM (active)
EC50 (Insulin-degrading enzyme [5]): > 54.7 µM (inactive)
AC50 [6]: 17.2 µM (active)
AC50 [7]: 9.99 µM (active)
IC50 (Orexin receptor type 2 [8]): > 50 µM (inactive)
AC50 [9]: 9.49 µM (active)
IC50 (HEK293 [10]): 17 µM (inactive)
IC50 (Orexin receptor type 2 [11]): 8.9 µM (active)
IC50 [12]: 63.1 µM (inactive)
EC50 (HEK293 [13]): > 54.7 µM (inactive)
EC50 (Insulin-degrading enzyme [14]): 15.5 µM (inactive)
IC50 [15]: 15.3 µM (inactive)

— ChEMBL document CHEMBL1201862, “PubChem BioAssay data set” (2004)
